Laboratory results published in ChEMBL document CHEMBL1137443, “Preparation of 4-aryl-2-trifluoromethylbenzonitrile derivatives as androgen receptor antagonists for topical suppression of sebum production” (Bioorg Med Chem Lett, 2007).

Experiments:
Androgen receptor [1] = target: T1, Androgen receptor (Homo sapiens, UniProt P10275); assay: Displacement of [3H]DHT from human recombinant AR expressed in Sf9 cells
T1 sequence (P10275 whole entry): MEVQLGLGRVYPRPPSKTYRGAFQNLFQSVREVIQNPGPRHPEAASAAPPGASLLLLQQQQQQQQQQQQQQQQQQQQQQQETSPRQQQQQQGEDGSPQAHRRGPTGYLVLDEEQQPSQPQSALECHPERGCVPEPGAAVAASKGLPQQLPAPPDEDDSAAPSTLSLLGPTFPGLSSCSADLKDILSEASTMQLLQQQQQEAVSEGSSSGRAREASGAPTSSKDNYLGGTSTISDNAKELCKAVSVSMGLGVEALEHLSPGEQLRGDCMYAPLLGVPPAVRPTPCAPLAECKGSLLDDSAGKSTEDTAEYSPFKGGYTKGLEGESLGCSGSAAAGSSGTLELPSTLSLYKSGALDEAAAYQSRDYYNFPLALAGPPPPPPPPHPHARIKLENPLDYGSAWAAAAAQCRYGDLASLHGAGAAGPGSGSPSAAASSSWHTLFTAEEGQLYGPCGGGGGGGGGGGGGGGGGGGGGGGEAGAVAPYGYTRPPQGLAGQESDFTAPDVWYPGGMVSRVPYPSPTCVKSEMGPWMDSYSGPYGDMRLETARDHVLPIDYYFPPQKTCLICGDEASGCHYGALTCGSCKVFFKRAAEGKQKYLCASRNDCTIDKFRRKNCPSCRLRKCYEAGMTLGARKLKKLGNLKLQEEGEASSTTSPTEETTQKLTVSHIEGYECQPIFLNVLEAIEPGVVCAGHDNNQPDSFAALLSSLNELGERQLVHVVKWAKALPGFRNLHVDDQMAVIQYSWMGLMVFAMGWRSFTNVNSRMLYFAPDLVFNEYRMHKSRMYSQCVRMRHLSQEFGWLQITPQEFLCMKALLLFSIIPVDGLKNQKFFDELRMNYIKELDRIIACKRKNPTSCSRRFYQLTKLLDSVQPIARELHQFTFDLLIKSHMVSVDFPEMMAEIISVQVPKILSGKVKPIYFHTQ

Progesterone receptor = target: T2, Progesterone receptor (Homo sapiens, UniProt P06401); assay: Binding affinity at human PR
T2 sequence (P06401 whole entry): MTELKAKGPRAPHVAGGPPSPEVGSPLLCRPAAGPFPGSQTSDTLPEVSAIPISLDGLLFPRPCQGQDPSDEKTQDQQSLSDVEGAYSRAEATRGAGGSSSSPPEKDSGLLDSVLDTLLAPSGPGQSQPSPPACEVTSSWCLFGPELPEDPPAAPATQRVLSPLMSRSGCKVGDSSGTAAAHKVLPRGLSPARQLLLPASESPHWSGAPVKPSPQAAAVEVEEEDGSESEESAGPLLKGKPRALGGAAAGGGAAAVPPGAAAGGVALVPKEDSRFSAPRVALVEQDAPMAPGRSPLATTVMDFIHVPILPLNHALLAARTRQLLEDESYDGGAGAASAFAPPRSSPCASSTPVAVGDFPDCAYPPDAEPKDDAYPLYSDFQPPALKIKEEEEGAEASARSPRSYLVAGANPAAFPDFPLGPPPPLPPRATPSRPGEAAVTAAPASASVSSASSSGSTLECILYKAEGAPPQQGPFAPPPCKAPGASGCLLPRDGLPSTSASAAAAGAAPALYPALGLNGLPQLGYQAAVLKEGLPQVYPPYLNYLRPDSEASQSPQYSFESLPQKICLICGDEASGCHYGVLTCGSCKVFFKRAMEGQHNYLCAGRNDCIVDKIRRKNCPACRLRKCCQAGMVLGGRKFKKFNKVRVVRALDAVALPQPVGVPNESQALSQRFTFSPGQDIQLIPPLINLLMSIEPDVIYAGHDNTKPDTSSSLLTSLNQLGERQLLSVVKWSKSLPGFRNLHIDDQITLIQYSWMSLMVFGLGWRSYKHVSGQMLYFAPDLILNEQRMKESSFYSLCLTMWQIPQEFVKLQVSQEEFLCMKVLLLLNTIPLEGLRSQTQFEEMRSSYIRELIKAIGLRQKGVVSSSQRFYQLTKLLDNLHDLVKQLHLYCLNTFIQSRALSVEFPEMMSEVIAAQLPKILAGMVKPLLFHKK

Androgen receptor [2] = target: T1, Androgen receptor; assay: Antagonist activity at human AR in MDA-MB453-MMTV-luci cells by functional assay; assay type: cell-based
Syrian golden hamster = assay: Reduction of wax ester in Golden Syrian hamster ear model relative to control; assay type: functional, Mesocricetus auratus; set-up: scale not given: the % may be the effect or the level left

Structure (SMILES) | IC50 (Androgen receptor [1]) | IC50 (Progesterone receptor) | IC50 (Androgen receptor [2]) | Activity (Syrian golden hamster)
COCCOCCOc1ccccc1-c1ccc(C#N)c(C(F)(F)F)c1 | 8140 nM |  |  | 
N#Cc1ccc(-c2ccccc2OCC(=O)O)cc1C(F)(F)F | > 10000 nM |  |  | 
Cc1cccc(-c2ccc(C#N)c(C(F)(F)F)c2)c1 | 1900 nM |  |  | 
N#Cc1ccc(-c2c(O)cccc2O)cc1C(F)(F)F | 989 nM |  |  | 
COc1ccc(-c2ccc(C#N)c(C(F)(F)F)c2)cc1 | 56.7 nM | 5520 nM | 0.8 nM | 
COc1ccccc1-c1ccc(C#N)c(C(F)(F)F)c1 | 37 nM | 3250 nM | 20.1 nM | 
N#Cc1ccc(-c2ccccc2O)cc1C(F)(F)F | 39.9 nM | 4450 nM | 0.02 nM | 86%
N#Cc1ccc(-c2ccccc2Cl)cc1C(F)(F)F | 9.8 nM |  |  | 
N#Cc1ccc(-c2ccccc2C(F)(F)F)cc1C(F)(F)F | 10.9 nM |  | > 1 nM | 
N#Cc1ccc(-c2ccccc2OCCO)cc1C(F)(F)F | 1540 nM |  |  | 
Cc1ccc(-c2ccc(C#N)c(C(F)(F)F)c2)cc1 | 200 nM |  | 843 nM | 
COc1cccc(OC)c1-c1ccc(C#N)c(C(F)(F)F)c1 | 14.7 nM |  | 399 nM | 
CC1(C)C(=O)N(c2ccc(C#N)c(C(F)(F)F)c2)C(=O)N1CCCCO [RU-58841] |  |  |  | 95%
Cc1ccccc1-c1ccc(C#N)c(C(F)(F)F)c1 | 146 nM |  | > 1000 nM | 
COCCOc1ccccc1-c1ccc(C#N)c(C(F)(F)F)c1 | 2230 nM |  |  | 
COC(=O)COc1ccccc1-c1ccc(C#N)c(C(F)(F)F)c1 | 1310 nM |  |  | 
N#Cc1ccc(-c2cccc(O)c2)cc1C(F)(F)F | 229 nM |  |  | 
COc1cccc(-c2ccc(C#N)c(C(F)(F)F)c2)c1 | 955 nM | 9460 nM | 140 nM | 
N#Cc1ccc(-c2ccc(O)cc2)cc1C(F)(F)F | 61.2 nM | > 10000 nM | 11.9 nM | 
